From patent publication US20230339970A1, “CASEIN KINASE 1 DELTA MODULATORS” (priority 2020, published 2023) come the findings set out here.

The target of test [1] is T1, human recombinant GST cleaved CSNK1D (Homo sapiens, UniProt P48730).
T1 construct: GST (cleaved yes); purchased University of Dundee clone DU 19064
As to the kind of experiment: Purified Enzyme Assay (ADP-Glo CSNK1D Kinase Assay). The test is classed as biochemical. Particulars: 2 nM CSNK1D; peptide substrate 150 μM; ATP 20 μM; 45 minutes at room temperature. In short, it runs like this: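 Percent activity derived from ADP-Glo quantification of ADP produced. Reactions: compound dose-response with human recombinant GST-cleaved CSNK1D, ATP and substrate peptide PLSRTL-pS-VASLPGL, incubated 45 min at room temperature.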
For orientation: ADP-Glo turns the ADP formed in a reaction into a luminescent signal.

The target in another test is T2, human CSNK1D (Homo sapiens, UniProt P48730).
T2 construct: expressed in transfected cells
T2 sequence (P48730 whole entry): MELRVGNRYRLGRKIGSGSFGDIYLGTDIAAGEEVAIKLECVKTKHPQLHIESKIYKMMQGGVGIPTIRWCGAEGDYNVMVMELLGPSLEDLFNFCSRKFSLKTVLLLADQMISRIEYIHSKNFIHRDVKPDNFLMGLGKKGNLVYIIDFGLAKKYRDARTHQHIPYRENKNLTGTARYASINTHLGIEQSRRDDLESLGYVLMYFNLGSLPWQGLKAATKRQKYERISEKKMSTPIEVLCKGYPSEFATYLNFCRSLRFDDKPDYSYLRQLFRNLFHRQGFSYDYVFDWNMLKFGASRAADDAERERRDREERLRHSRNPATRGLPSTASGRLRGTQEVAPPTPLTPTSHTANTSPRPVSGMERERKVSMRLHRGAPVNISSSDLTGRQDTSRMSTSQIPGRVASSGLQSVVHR
In words: Whole Cell nBRET CSNK1D Binding Assay. Particulars: living CHO cells stably expressing human CSNK1D tagged with nanoluciferase; NanoBret tracer 130 nM; 2 hours at 37 C.

pIC50: −log10 of the molar value.

T1 sequence (P48730 whole entry): as above

With `C[C@@H]1OCc2c(-c3ccnc4[nH]ncc34)c(-c3ccc(F)cc3)nn2[C@H]1C` (single isomer, unassigned) [Example 115, (6*S,7*S)-2-(4-Fluorophenyl)-6,7-dimethyl-3-(1H-pyrazolo[3,4-b]pyridin-4-yl)-6,7-dihydro-4H-pyrazolo[5,1-c][1,4]oxazine], the pIC50 in test [1] is 8.22; at human CSNK1D it was 7.13.

Take `Fc1ccc(-c2nn3c(c2-c2ccnc4[nH]ncc24)CC[C@H]2C[C@H]23)cc1` (stereo in doubt) [Example 339, (5a*S,6a*R)-2-(4-Fluorophenyl)-3-(1H-pyrazolo[3,4-b]pyridin-4-yl)-5,5a,6,6a-tetrahydro-4H-cyclopropa[e]pyrazolo[1,5-a]pyridine]: the results for the negative-log IC50 (pIC50) (in test [1]; at human CSNK1D) were 9.00 and 8.15, respectively.

In the case of `CC(=O)Nc1cc(-c2c(-c3ccc(F)cc3)nn3c2CC[C@H]2[C@@H]3C2(F)F)ccn1` (stereo in doubt) [Example 350, N-(4-((5a*S,6a*R)-6,6-Difluoro-2-(4-fluorophenyl)-5,5a,6,6a-tetrahydro-4H-cyclopropa[e]pyrazolo[1,5-a]pyridin-3-yl)pyridin-2-yl)acetamide], the negative-log IC50 (pIC50) (in test [1]; on human CSNK1D) was 9.00 in each case.

As for `Fc1ccc(-c2nn3c(c2-c2ccnc4[nH]ncc24)CCC(F)(COC(F)(F)F)C3)nc1` (single isomer, unassigned) [Example 316, (*S)-4-[6-Fluoro-2-(5-fluoro-2-pyridyl)-6-(rifluoromethoxymethyl)-5,7-dihydro-4H-pyrazolo[1,5-a]pyridin-3-yl]-1H-pyrazolo[3,4-b]pyridine], the pIC50 in test [1] is 8.22; at human CSNK1D, 7.27.

With `Cc1cc(-c2c(-c3ccc(F)cc3)nn3c2C[C@H](F)C3)c2cn[nH]c2n1` [Example 12, (S)-4-(5-Fluoro-2-(4-fluorophenyl)-5,6-dihydro-4H-pyrrolo[1,2-b]pyrazol-3-yl)-6-methyl-1H-pyrazolo[3,4-b]pyridine], the negative-log IC50 (pIC50) was 9.00 in test [1] and 8.70 on human CSNK1D.

Turning to `CC1(C)COCc2c(-c3ccnc4[nH]ncc34)c(-c3ccc(F)cc3)nn21` [Example 120, 2-(4-Fluorophenyl)-7,7-dimethyl-3-(1H-pyrazolo[3,4-b]pyridin-4-yl)-4,6-dihydropyrazolo[5,1-c][1,4]oxazine], the pIC50 in test [1] is 7.89; on human CSNK1D, 6.70.

On to `COCC1(F)CCc2c(-c3cc(C)nc4[nH]ncc34)c(-c3ccc(F)cn3)nn2C1` (single isomer, unassigned) [Example 305, (*R)-4-[6-Fluoro-2-(5-fluoro-2-pyridyl)-6-(methoxymethyl)-5,7-dihydro-4H-pyrazolo[1,5-a]pyridin-3-yl]-6-methyl-1H-pyrazolo[3,4-b]pyridine], for which the negative logarithm of the IC50 (pIC50) was 7.05 in test [1] and 5.55 on human CSNK1D.

Regarding `CC(C)[C@H]1Cn2nc(-c3ccc(F)cn3)c(-c3ccnc4[nH]ncc34)c2CO1` (single isomer, unassigned) [Example 98, (*S)-2-(5-Fluoropyridin-2-yl)-6-isopropyl-3-(1H-pyrazolo[3,4-b]pyridin-4-yl)-6,7-dihydro-4H-pyrazolo[5,1-c][1,4]oxazine], the negative logarithm of the IC50 (pIC50) in test [1] is 7.51; at human CSNK1D, 5.64.

`CC1(C(F)(F)F)Cn2nc(-c3ccc(F)cc3)c(-c3ccnc4[nH]ncc34)c2CO1` (single isomer, unassigned) [Example 416, (*R)-2-(4-Fluorophenyl)-6-methyl-3-(1H-pyrazolo[3,4-b]pyridin-4-yl)-6-(trifluoromethyl)-6,7-dihydro-4H-pyrazolo[5,1-c][1,4]oxazine]: the negative-log IC50 (pIC50) in test [1] was 7.77; on human CSNK1D, 6.93.

With `Cc1n[nH]c2nc(C(F)F)cc(-c3c(-c4ccc(F)cc4)nn4c3COC(C(F)(F)F)C4)c12` (single isomer, unassigned) [Example 375, (*R)-3-[6-(Difluoromethyl)-3-methyl-1H-pyrazolo[3,4-b]pyridin-4-yl]-2-(4-fluorophenyl)-6-(trifluoromethyl)-6,7-dihydro-4H-pyrazolo[5,1-c][1,4]oxazine], the negative logarithm of the IC50 (pIC50) was 7.19 in test [1] and 6.96 on human CSNK1D.

As to `C[C@H]1CCc2c(-c3ccnc4[nH]ncc34)c(-c3ccc(F)cn3)nn21` [Example 19, 4-[(6S)-2-(5-Fluoro-2-pyridyl)-6-methyl-5,6-dihydro-4H-pyrrolo[1,2-b]pyrazol-3-yl]-1H-pyrazolo[3,4-b]pyridine], the values for the negative-log IC50 (pIC50) (in test [1]; at human CSNK1D) were 8.10 and 6.72, respectively.

Take `CC1(C)Cn2nc(-c3ccc(F)cn3)c(-c3ccnc4[nH]nc(Cl)c34)c2CO1` [Example 388, 3-(3-Chloro-1H-pyrazolo[3,4-b]pyridin-4-yl)-2-(5-fluoropyridin-2-yl)-6,6-dimethyl-6,7-dihydro-4H-pyrazolo[5,1-c][1,4]oxazine]: the pIC50 in test [1] was 8.40; at human CSNK1D, 7.85.

On to `CC1(CF)CCc2c(-c3ccncc3)c(-c3ccc(F)cn3)nn2C1` (single isomer, unassigned) [Example 284, (*S)-6-(Fluoromethyl)-2-(5-fluoro-2-pyridyl)-6-methyl-3-(4-pyridyl)-5,7-dihydro-4H-pyrazolo[1,5-a]pyridine], for which the figures for the pIC50 (in test [1]; at human CSNK1D) were 8.22 and 7.17, respectively.

With `CC1(C)Cn2nc(-c3ccc(F)cn3)c(-c3ccnc4cn[nH]c34)c2CO1` [Example 139, 2-(5-Fluoropyridin-2-yl)-6,6-dimethyl-3-(1H-pyrazolo[4,3-b]pyridin-7-yl)-6,7-dihydro-4H-pyrazolo[5,1-c][1,4]oxazine], the values for the pIC50 (in test [1]; on human CSNK1D) were 6.35 and < 5.00, respectively.

For `CCn1ncc2cc(-c3c(-c4ccc(F)cn4)nn4c3OCCC4)cnc21` [Example 441, 3-(1-Ethyl-1H-pyrazolo[3,4-b]pyridin-5-yl)-2-(5-fluoropyridin-2-yl)-6,7-dihydro-5H-pyrazolo[5,1-b][1,3]oxazine], the negative-log IC50 (pIC50) was 7.36 in test [1] and 5.73 on human CSNK1D.

Turning to `Fc1ccc(-c2nn3c(c2-c2c(F)cnc4[nH]ccc24)CCCC3)nc1` [Example 34, 5-Fluoro-4-[2-(5-fluoro-2-pyridyl)-4,5,6,7-tetrahydropyrazolo[1,5-a]pyridin-3-yl]-1H-pyrrolo[2,3-b]pyridine], the pIC50 in test [1] is 8.10; on human CSNK1D it was 7.11.

`C[C@H]1CCc2c(-c3ccnc4[nH]ncc34)c(-c3ccc(F)cc3)nn21` [Example 15, 4-[(6S)-2-(4-Fluorophenyl)-6-methyl-5,6-dihydro-4H-pyrrolo[1,2-b]pyrazol-3-yl]-1H-pyrazolo[3,4-b]pyridine]: the pIC50 in test [1] is 9.00; at human CSNK1D, 7.92.

As for `Cc1cc(-c2c(-c3ncc(F)cc3F)nn3c2OCCC3)c2cn[nH]c2n1` [Example 189, 2-(3,5-Difluoro-2-pyridyl)-3-(6-methyl-1H-pyrazolo[3,4-b]pyridin-4-yl)-6,7-dihydro-5H-pyrazolo[5,1-b][1,3]oxazine], the pIC50 in test [1] was 8.00; on human CSNK1D, 6.49.

With `Cc1cc(-c2c(-c3ccc(F)cn3)nn3c2OCCCC3)c2cn[nH]c2n1` [Example 219, 2-(5-Fluoro-2-pyridyl)-3-(6-methyl-1H-pyrazolo[3,4-b]pyridin-4-yl)-5,6,7,8-tetrahydropyrazolo[5,1-b][1,3]oxazepane], the pIC50 is 7.42 in test [1] and 6.55 at human CSNK1D.

Consider `CNC(=O)c1cc(-c2c(-c3ccc(F)cn3)nn3c2COC(C)(C(F)(F)F)C3)ccn1` (stereo not shown) [Example 175, 4-(2-(5-Fluoropyridin-2-yl)-6-methyl-6-(trifluoromethyl)-6,7-dihydro-4H-pyrazolo[5,1-c][1,4]oxazin-3-yl)-N-methylpicolinamide], for which the negative logarithm of the IC50 (pIC50) in test [1] was 6.83; on human CSNK1D, 5.44.

Turning to `CC1(C)Cn2nc(-c3ccc(F)cn3)c(-c3ccncc3)c2CO1` [Example 128, 2-(5-Fluoropyridin-2-yl)-6,6-dimethyl-3-(pyridin-4-yl)-6,7-dihydro-4H-pyrazolo[5,1-c][1,4]oxazine], the negative logarithm of the IC50 (pIC50) is 7.89 in test [1] and 6.61 on human CSNK1D.

`CCn1ncc2cc(-c3c(-c4ccc(F)cn4)nn4c3CCC4)cnc21` [Example 223, 1-Ethyl-5-(2-(5-fluoropyridin-2-yl)-5,6-dihydro-4H-pyrrolo[1,2-b]pyrazol-3-yl)-1H-pyrazolo[3,4-b]pyridine]: the negative logarithm of the IC50 (pIC50) is 7.66 in test [1] and 6.05 on human CSNK1D.

Take `Fc1ccc(-c2nn3c(c2-c2c(F)cnc4[nH]ncc24)COC2(C3)CC2(F)F)nc1` (single isomer, unassigned) [Example 435, (*R)-1′. 1′-Difluoro-3-(5-fluoro-1H-pyrazolo[3,4-b]pyridin-4-yl)-2-(5-fluoro-2-pyridyl)spiro[4,7-dihydropyrazolo[5,1-c][1,4]oxazine-6,2′-cyclopropane]]: the pIC50 was 8.30 in test [1] and 7.31 at human CSNK1D.

Take `Fc1ccc(-c2nn3c(c2-c2ccnc4[nH]ncc24)OCC2(C3)CC2(F)F)cc1` (single isomer, unassigned) [Example 476, (*S)-2,2-Difluoro-2′-(4-fluorophenyl)-3′-1H-pyrazolo[3,4-b]pyridin-4-yl)-5′H,7′H-spiro[cyclopropane-1,6′-pyrazolo[5,1-b][1,3]oxazine]]: the pIC50 (in test [1]; at human CSNK1D) was 9.00 throughout.

As to `CC1(C)Cn2nc(-c3ccc(F)cn3)c(-c3ccnc4cc[nH]c34)c2CO1` [Example 149, 2-(5-Fluoro-2-pyridyl)-6,6-dimethyl-3-(1H-pyrrolo[3,2-b]pyridin-7-yl)-4,7-dihydropyrazolo[5,1-c][1,4]oxazine], the pIC50 was 5.85 in test [1] and < 5.00 at human CSNK1D.

With `[2H]C([2H])([2H])C1(C([2H])([2H])[2H])Cn2nc(-c3ccc(F)cn3)c(-c3ccnc4[nH]nc(F)c34)c2CO1` [Example 398, 3-(3-Fluoro-1H-pyrazolo[3,4-b]pyridin-4-yl)-2-(5-fluoropyridin-2-yl)-6,6-bis(methyl-d3)-6,7-dihydro-4H-pyrazolo[5,1-c][1,4]oxazine], the pIC50 is 8.52 in test [1] and 7.54 on human CSNK1D.

As usually defined, the pIC50 is the negative decadic logarithm of the IC50, by convention in mol/L.
